According to patent US20090252786A1, “Use of a Biologically Active Blood Serum for the Treatment of a Disorder Characterized in a Reduced Function of a GABA Receptor” (priority 2008, published 2009):
Several values for one entry are separate records, joined by “and”; a condition that tells them apart may be missing. Equal entries are not always repeated.

Experiments:
[1] = test system: pyramidal cell layer of CA1, hippocampus slices; experiment: hippocampus slice, provocation with bicuculline; set-up: species or system rat; conditions: bicuculline 50 μM alone, mean of 4 slices, one mean per series
Description: (§1) Hippocampus slices were obtained from 11 adult male Sprague-Dawlay rats (Charles River Wiga, Sulzbach, Germany). Rats were kept under a reversed day-night cycle for 2 weeks prior start of the experiments, to allow recording of in-vitro activity from slices during the active phase of their circadian rhythm (Dimpfel et al., 1994, Dimpfel et al., 1995). Animals were exsanguinated under ether anaesthesia, the brain was removed in total and the hippocampal formation was isolated under microstereoscopic sight. The midsection of the hippocampus was fixed to the table of a vibrating microtome (Rhema Labortechnik, Hofheim, Germany) using a cyanoacrylate adhesive, submerged in chilled bicarbonate-buffered saline (artificial cerebro spinal fluid (ACSF) NaCl: 124 mM; KCl: 5 mM; CaCl2: 2 mM; MgSO4: 2 mM; NaHCO3: 26 mM; and glucose: 10 mM), and cut into slices of 400 μm thickness. All slices were preincubated for at least 1 h in carbogen ([…])-saturated ACSF (pH 7.4) in a prechamber before use (see also Dimpfel et al., 1991).
During the experiment the slices were held and treated in a special Superfusion chamber (List Electronics, Darmstadt, Germany) at 35° C. according to Haas et al., 1979 (see also: Schiff and Somjen, 1985). Four slices were used from one rat per day under one of the test conditions (control or various concentrations of the S1 compound). […]

[2] = test system: pyramidal cell layer of CA1, hippocampus slices; experiment: hippocampus slice, provocation with pentylenetetrazol; set-up: species or system rat; conditions: PTZ 50 μM alone
Description: as §1
During the experiment the slices were held and treated in a special Superfusion chamber (List Electronics, Darmstadt, Germany) at 35° C. according to Haas et al., 1979 (see also: Schiff and Somjen, 1985). Four slices were used from one rat per day under one of the test conditions (control or various concentrations of the S1 compound). The preparation was superfused with artificial cerebrospinal fluid (ACSF) at 180-230 ml/h. Electrical stimulation (200 μA constant current pulses of 200 μs pulse width) of the Schaffer Collaterals within the […] area and recording of extracellular field potentials from the pyramidal cell layer of CA1 (Dimpfel et al., 1991) as shown in FIG. 4 and FIG. 5 was performed according to conventional electrophysiological methods using the “Labteam” Computer system and “NeuroTool” software package (Medisyst GmbH, Linden, Germany). Measurements were performed at 10 min intervals to avoid potentiation mechanisms. Four stimulations—each 20 seconds apart—were averaged for each time point. […]

Row | Compound | population spike amplitude in % of ACSF value, Bicuculline 50 μM, mean (X) [1] | population spike amplitude in % of ACSF value, PTZ 50 μM, mean (X) ([2]; mean of 4 slices) | population spike amplitude, PTZ 50 μM, mean (X) ([2]; mean of 4 slices) | population spike amplitude in % of ACSF value, PTZ 50 μM ([2]; single slices)
1 | CN1CCc2cc3c(cc2[C@H]1[C@@H]1OC(=O)c2c1ccc1c2OCO1)OCO3 [Bicuculline] | 256.6% and 248.7% and 237.6% and 249.6% | – | – | –
2 | C1CCc2nnnn2CC1 [PTZ, 6,7,8,9-tetrahydro-5h-tetrazolo(1,5-a)azepine] | – | 243.9% | −2854.9 μV | 254.2% and 244.7% and 232.8% and 243.7%
